{"source": "patent US11331299B2", "about": "“Medicinal use of serrulatane diterpenes” (The University of Sydney, priority 2016, dated 2022)", "key": {"COX1 (h)": {"biological_target": "COX1 (h) (Homo sapiens, UniProt P23219)", "sequence (P23219 24-599)": "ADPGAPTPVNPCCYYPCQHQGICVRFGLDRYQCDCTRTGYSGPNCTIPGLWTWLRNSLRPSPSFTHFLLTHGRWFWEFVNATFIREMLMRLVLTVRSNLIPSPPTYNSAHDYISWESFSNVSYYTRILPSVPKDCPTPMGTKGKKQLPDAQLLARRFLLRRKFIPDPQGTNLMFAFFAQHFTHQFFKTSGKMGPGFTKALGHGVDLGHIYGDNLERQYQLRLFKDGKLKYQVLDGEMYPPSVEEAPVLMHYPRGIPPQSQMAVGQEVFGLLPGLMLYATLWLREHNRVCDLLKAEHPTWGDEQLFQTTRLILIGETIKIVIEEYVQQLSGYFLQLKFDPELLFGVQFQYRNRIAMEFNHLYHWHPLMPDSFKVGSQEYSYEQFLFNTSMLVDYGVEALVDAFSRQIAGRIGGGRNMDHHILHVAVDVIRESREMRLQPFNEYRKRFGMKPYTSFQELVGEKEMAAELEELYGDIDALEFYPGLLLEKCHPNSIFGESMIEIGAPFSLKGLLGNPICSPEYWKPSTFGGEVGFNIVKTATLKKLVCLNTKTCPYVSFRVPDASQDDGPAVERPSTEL", "test": "Bioprint enzyme assay", "assay_type": "biochemical"}, "HREC": {"tested_on": "HREC", "test": "OncoPanel normal cell proliferation assay (3-day)", "assay_type": "cell-based"}, "[1]": {"biological_target": "receptors (Bioprint panel) (Rattus norvegicus, UniProt P34975)", "test": "biochemical", "assay_type": "binding", "details": "OPIOD & OPIOID-LIKE kappa (KOP) (agonist radioligand); 10 μM; read-out: % Inhibition of Control Specific Binding"}, "[2]": {"biological_target": "receptors (Bioprint panel) (Homo sapiens, UniProt P14416)", "test": "biochemical", "assay_type": "binding", "details": "DOPAMINE D2S (h) (agonist radioligand); 10 μM; read-out: % Inhibition of Control Specific Binding"}, "[3]": {"biological_target": "receptors (Bioprint panel) (Homo sapiens, UniProt P35368)", "test": "biochemical", "assay_type": "binding", "details": "[…] alpha 1B (h) (antagonist radioligand); 10 μM; read-out: % Inhibition of Control Specific Binding"}, "[4]": {"biological_target": "receptors (Bioprint panel) (Homo sapiens, UniProt P30518)", "sequence (P30518 whole entry)": "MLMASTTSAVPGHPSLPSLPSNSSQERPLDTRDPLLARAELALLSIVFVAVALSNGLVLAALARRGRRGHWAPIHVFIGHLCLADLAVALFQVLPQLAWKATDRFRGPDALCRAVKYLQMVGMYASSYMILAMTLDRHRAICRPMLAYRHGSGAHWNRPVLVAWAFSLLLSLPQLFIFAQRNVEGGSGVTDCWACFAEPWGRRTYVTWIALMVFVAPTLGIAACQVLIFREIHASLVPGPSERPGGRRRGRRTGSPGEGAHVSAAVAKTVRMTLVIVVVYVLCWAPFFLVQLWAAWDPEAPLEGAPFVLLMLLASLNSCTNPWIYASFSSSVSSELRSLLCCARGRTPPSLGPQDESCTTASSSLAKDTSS", "test": "biochemical", "assay_type": "binding", "details": "VASOPRESSIN V2 (h) (agonist radioligand); 10 μM; read-out: % Inhibition of Control Specific Binding"}, "[5]": {"biological_target": "receptors (Bioprint panel) (Homo sapiens, UniProt P32247)", "sequence (P32247 whole entry)": "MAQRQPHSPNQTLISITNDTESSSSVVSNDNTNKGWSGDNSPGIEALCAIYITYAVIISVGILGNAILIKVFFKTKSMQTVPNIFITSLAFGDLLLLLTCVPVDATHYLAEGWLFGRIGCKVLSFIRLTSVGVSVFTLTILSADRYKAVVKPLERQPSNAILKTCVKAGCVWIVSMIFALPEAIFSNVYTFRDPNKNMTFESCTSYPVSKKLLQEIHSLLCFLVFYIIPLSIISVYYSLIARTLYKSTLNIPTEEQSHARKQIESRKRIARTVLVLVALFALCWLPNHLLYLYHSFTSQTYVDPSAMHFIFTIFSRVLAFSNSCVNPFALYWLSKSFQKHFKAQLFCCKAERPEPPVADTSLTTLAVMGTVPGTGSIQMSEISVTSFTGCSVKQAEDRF", "test": "biochemical", "assay_type": "binding", "details": "BOMBESIN BB3 (h) (agonist radioligand); 10 μM; read-out: % Inhibition of Control Specific Binding"}, "[6]": {"biological_target": "receptors (Bioprint panel) (Homo sapiens, UniProt P47871)", "test": "biochemical", "assay_type": "binding", "details": "glucagon (h) (agonist radioligand); 10 μM; read-out: % Inhibition of Control Specific Binding"}, "[7]": {"biological_target": "receptors (Bioprint panel) (Homo sapiens, UniProt P25103)", "test": "biochemical", "assay_type": "binding", "details": "NEUROKININ NK1 (h) (agonist radioligand); 10 μM; read-out: % Inhibition of Control Specific Binding"}, "[8]": {"biological_target": "receptors (Bioprint panel) (Rattus norvegicus, UniProt P28565)", "sequence (P28565 whole entry)": "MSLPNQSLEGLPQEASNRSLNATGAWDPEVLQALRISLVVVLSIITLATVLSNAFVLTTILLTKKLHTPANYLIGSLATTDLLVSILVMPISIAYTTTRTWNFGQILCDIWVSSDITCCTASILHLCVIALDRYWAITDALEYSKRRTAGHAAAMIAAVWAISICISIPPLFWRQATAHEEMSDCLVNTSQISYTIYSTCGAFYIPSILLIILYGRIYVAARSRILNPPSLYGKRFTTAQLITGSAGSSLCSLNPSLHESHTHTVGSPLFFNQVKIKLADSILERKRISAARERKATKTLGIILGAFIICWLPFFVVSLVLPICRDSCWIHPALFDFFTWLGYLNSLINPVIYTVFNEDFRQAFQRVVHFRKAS", "test": "biochemical", "assay_type": "binding", "details": "read-out: % Inhibition of Control Specific Binding"}, "[9]": {"biological_target": "receptors (Bioprint panel) (Homo sapiens, UniProt P24530)", "sequence (P24530 27-442)": "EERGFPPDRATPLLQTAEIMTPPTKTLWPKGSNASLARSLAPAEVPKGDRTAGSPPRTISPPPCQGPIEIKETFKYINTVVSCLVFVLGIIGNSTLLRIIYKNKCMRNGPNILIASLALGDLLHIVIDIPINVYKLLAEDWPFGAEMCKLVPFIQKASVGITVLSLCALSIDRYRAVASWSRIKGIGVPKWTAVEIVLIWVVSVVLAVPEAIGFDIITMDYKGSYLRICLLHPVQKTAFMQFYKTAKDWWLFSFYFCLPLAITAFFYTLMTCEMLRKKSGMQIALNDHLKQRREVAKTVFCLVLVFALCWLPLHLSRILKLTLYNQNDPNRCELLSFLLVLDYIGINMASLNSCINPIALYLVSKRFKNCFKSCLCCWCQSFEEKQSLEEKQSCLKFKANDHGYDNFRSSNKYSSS", "test": "biochemical", "assay_type": "binding", "details": "[…] (h) (agonist radioligand); 10 μM; read-out: % Inhibition of Control Specific Binding"}, "[10]": {"biological_target": "receptors (Bioprint panel) (Homo sapiens, UniProt P11229)", "test": "biochemical", "assay_type": "binding", "details": "[…] M1 (h) (antagonist radioligand); 10 μM; read-out: % Inhibition of Control Specific Binding"}, "[11]": {"biological_target": "receptors (Bioprint panel) (Homo sapiens, UniProt P41143)", "sequence (P41143 whole entry)": "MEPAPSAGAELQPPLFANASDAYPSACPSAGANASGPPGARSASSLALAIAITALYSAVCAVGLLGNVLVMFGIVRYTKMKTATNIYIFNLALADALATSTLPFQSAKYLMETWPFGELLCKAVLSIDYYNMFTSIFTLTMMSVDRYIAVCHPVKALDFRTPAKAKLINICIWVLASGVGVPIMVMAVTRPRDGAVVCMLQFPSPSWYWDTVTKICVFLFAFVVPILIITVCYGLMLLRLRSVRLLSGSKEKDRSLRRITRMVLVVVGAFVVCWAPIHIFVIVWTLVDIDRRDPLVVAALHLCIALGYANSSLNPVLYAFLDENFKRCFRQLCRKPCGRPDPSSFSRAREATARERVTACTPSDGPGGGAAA", "test": "biochemical", "assay_type": "binding", "details": "OPIOD & OPIOID-LIKE delta (DOP) (h) (agonist radioligand); 10 μM; read-out: % Inhibition of Control Specific Binding"}, "[12]": {"biological_target": "receptors (Bioprint panel) (Homo sapiens, UniProt P31391)", "sequence (P31391 whole entry)": "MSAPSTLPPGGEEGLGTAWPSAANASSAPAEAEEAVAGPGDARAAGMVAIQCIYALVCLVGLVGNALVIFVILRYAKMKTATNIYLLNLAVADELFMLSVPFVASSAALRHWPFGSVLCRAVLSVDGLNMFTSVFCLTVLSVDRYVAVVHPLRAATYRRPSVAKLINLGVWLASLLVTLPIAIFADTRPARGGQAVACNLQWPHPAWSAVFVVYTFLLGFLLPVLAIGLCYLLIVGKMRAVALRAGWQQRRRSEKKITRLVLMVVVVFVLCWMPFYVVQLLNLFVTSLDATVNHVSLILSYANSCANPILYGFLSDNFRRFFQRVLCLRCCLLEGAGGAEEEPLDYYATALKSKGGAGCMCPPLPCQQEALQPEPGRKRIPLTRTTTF", "test": "biochemical", "assay_type": "binding", "details": "SOMASTATIN sst4 (h) (agonist radioligand); 10 μM; read-out: % Inhibition of Control Specific Binding"}, "[13]": {"biological_target": "receptors (Bioprint panel) (Homo sapiens, UniProt Q9Y5N1)", "sequence (Q9Y5N1 whole entry)": "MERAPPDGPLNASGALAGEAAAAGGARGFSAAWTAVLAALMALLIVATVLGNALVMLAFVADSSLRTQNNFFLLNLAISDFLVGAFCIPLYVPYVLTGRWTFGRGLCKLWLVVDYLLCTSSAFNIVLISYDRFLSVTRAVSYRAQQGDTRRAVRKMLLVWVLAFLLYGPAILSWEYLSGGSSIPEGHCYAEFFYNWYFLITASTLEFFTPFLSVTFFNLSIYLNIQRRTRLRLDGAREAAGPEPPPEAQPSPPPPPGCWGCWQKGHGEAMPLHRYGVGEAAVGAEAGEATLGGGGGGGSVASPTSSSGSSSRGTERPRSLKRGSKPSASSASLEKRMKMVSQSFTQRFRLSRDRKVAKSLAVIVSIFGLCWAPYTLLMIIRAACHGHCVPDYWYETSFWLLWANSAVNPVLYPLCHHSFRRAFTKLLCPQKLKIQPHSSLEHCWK", "test": "biochemical", "assay_type": "binding", "details": "HISTAMINE H3 (h) (agonist radioligand); 10 μM; read-out: % Inhibition of Control Specific Binding"}, "[14]": {"biological_target": "receptors (Bioprint panel) (Homo sapiens, UniProt P30542)", "sequence (P30542 whole entry)": "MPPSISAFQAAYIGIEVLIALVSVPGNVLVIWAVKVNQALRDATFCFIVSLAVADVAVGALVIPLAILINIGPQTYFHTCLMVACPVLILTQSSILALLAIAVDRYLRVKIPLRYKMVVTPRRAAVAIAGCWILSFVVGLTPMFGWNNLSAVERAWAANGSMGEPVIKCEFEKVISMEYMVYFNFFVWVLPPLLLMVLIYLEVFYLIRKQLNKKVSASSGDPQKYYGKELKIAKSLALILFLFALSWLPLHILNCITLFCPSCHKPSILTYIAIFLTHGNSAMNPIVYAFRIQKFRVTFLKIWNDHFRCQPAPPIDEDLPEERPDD", "test": "biochemical", "assay_type": "binding", "details": "ADENOSINE A1 (h) (agonist radioligand); 10 μM; read-out: % Inhibition of Control Specific Binding"}, "[15]": {"biological_target": "receptors (Bioprint panel) (Homo sapiens, UniProt P25105)", "sequence (P25105 whole entry)": "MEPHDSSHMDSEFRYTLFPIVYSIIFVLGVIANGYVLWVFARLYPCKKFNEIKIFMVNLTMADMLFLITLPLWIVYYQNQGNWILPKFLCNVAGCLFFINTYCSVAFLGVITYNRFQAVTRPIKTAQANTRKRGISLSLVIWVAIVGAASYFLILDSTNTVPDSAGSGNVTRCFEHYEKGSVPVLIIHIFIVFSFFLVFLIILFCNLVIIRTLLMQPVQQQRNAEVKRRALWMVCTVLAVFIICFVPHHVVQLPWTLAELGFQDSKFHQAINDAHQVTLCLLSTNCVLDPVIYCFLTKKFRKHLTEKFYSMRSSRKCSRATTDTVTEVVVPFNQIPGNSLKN", "test": "biochemical", "assay_type": "binding", "details": "[…] ACTIVATED FACTOR PAF (h) (agonist radioligand); 10 μM; read-out: % Inhibition of Control Specific Binding"}, "[16]": {"biological_target": "receptors (Bioprint panel) (Homo sapiens, UniProt P29274)", "test": "biochemical", "assay_type": "binding", "details": "ADENOSINE A2A (h) (agonist radioligand); 10 μM; read-out: % Inhibition of Control Specific Binding"}, "[17]": {"tested_on": "primary human keratinocytes", "test": "Keratinocyte cell viability, IL-8 assay (assay number 1244)", "assay_type": "cell-based", "details": "Homo sapiens, Keratinocyte; read-out: Inhibition of cell viability, Rel EC50"}, "[18]": {"test": "Keratinocyte cell viability, IL-8 assay (assay number 1244)", "assay_type": "cell-based, human", "details": "human, primary human keratinocytes induced with IL-17A and TNFα; read-out: Inhibition of cell viability, Max Effect"}, "dopamine D1 (h)": {"biological_target": "dopamine D1 (h) (Homo sapiens, UniProt P21728)", "sequence (P21728 whole entry)": "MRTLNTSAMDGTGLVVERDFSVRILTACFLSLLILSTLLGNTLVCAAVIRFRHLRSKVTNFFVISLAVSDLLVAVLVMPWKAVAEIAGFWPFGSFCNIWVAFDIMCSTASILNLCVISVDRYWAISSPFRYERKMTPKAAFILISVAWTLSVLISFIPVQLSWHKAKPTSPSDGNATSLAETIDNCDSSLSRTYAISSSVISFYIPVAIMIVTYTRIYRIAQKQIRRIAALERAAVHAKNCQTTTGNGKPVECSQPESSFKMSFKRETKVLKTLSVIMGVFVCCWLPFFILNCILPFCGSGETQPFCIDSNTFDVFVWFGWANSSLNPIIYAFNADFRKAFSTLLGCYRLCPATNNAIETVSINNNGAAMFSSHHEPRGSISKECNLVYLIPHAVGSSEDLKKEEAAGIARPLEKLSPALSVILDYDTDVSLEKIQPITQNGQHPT", "test": "biochemical", "assay_type": "binding"}, "adrenergic alpha 2C (h)": {"biological_target": "adrenergic alpha 2C (h) (Homo sapiens, UniProt P18825)", "sequence (P18825 whole entry)": "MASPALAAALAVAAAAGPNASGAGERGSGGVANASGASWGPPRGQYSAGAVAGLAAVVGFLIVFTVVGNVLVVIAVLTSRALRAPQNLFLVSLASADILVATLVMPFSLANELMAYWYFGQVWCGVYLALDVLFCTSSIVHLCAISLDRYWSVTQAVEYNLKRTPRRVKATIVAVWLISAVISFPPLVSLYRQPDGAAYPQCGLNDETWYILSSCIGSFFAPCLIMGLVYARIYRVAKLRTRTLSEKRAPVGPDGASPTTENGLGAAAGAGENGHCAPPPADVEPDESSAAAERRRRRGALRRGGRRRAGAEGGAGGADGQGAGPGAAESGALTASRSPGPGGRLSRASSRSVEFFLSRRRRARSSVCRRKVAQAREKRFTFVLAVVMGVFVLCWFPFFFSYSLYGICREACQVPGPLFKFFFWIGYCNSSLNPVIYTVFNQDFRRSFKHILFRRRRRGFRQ", "test": "biochemical", "assay_type": "binding"}, "SETDB1 (h)": {"biological_target": "SETDB1 (h) (Homo sapiens, UniProt Q15047)", "details": "read-out: Reference: (IC50 not given); cited from earlier work"}, "ASH1L": {"biological_target": "ASH1L (Homo sapiens, UniProt Q9NR48)", "details": "read-out: Reference: IC50; cited from earlier work"}, "[19]": {"details": "read-out: % inhibition of control specific binding"}}, "note": "Read-outs that look alike come from different tables or passages of the source."}
{"smiles": "CC(C)=CCC[C@H](CO)[C@@H]1CC[C@@H](C)c2c1cc(C)c(O)c2O", "note": "[Compound 1, 7,8,18-trihydroxyserrulat-14-ene]", "values": [{"measurement": "inhibition at 10 µM", "setting": "COX1 (h); COX1(h), read-out: % Inhibition of Control Values", "value": 81, "unit": "%"}, {"measurement": "inhibition at 10 µM", "setting": "COX1 (h); read-out: % inhibition of control enzyme activity", "value": 81, "unit": "%"}, {"measurement": "Relative cell count (%) Mean", "setting": "HREC; 3.00E+00 microM", "value": 85.1, "unit": "%"}, {"measurement": "Relative cell count (%) Mean", "setting": "HREC; 3.00E+01 microM", "value": 20.9, "unit": "%"}, {"measurement": "Relative cell count (%) Mean", "setting": "HREC; 3.01E−01 microM", "value": 96.7, "unit": "%"}, {"measurement": "Relative cell count (%) Mean", "setting": "HREC; 3.01E−02 microM", "value": 96.0, "unit": "%"}, {"measurement": "Relative cell count (%) Mean", "setting": "HREC; 3.02E−03 microM", "value": 94.0, "unit": "%"}, {"measurement": "Relative cell count (%) Mean", "setting": "HREC; 9.49E+00 microM", "value": 40.4, "unit": "%"}, {"measurement": "Relative cell count (%) Mean", "setting": "HREC; 9.51E−01 microM", "value": 89.3, "unit": "%"}, {"measurement": "Relative cell count (%) Mean", "setting": "HREC; 9.52E−02 microM", "value": 95.8, "unit": "%"}, {"measurement": "Relative cell count (%) Mean", "setting": "HREC; 9.53E−03 microM", "value": 93.3, "unit": "%"}, {"measurement": "Relative cell count (%) Mean", "setting": "HREC; 9.55E−04 microM", "value": 98.5, "unit": "%"}, {"measurement": "EC50", "setting": "HREC; 72 h, renal mixed epithelial, 3-day incubation, read-out: Cell Count EC50", "value": 6.45, "unit": "µM"}, {"measurement": "GI50", "setting": "HREC; 72 h, renal mixed epithelial, 3-day incubation, read-out: Cell Count GI50", "value": 4.3, "unit": "µM"}, {"measurement": "IC50", "setting": "HREC; 72 h, renal mixed epithelial, 3-day incubation, read-out: Cell Count IC50", "value": 7.98, "unit": "µM"}, {"measurement": "inhibition at 10 µM", "setting": "[1]", "value": 39, "unit": "%"}, {"measurement": "inhibition at 10 µM", "setting": "[2]", "value": 59, "unit": "%"}, {"measurement": "inhibition at 10 µM", "setting": "[3]", "value": 41, "unit": "%"}, {"measurement": "inhibition at 10 µM", "setting": "[4]", "value": 11, "unit": "%"}, {"measurement": "inhibition at 10 µM", "setting": "[5]", "value": 26, "unit": "%"}, {"measurement": "inhibition at 10 µM", "setting": "[6]", "value": -20, "unit": "%"}, {"measurement": "inhibition at 10 µM", "setting": "[7]", "value": 62, "unit": "%"}, {"measurement": "inhibition at 10 µM", "setting": "[8]", "value": 18, "unit": "%"}, {"measurement": "inhibition at 10 µM", "setting": "[9]", "value": 40, "unit": "%"}, {"measurement": "inhibition at 10 µM", "setting": "[10]", "value": 8, "unit": "%"}, {"measurement": "inhibition at 10 µM", "setting": "[11]", "value": 62, "unit": "%"}, {"measurement": "inhibition at 10 µM", "setting": "[12]", "value": 40, "unit": "%"}, {"measurement": "inhibition at 10 µM", "setting": "[13]", "value": 10, "unit": "%"}, {"measurement": "inhibition at 10 µM", "setting": "[14]", "value": 10, "unit": "%"}, {"measurement": "inhibition at 10 µM", "setting": "[15]", "value": 39, "unit": "%"}, {"measurement": "inhibition at 10 µM", "setting": "[16]", "value": 18, "unit": "%"}, {"measurement": "EC50", "setting": "[17]", "value": 246, "unit": "nM"}, {"measurement": "cytotoxicity", "setting": "[18]", "value": 101, "unit": "%"}, {"measurement": "inhibition at 10 µM", "setting": "dopamine D1 (h); DOPAMINE D1 (h) (antagonist radioligand), read-out: % Inhibition of Control Specific Binding", "value": 67, "unit": "%"}, {"measurement": "inhibition at 10 µM", "setting": "dopamine D1 (h); [19]", "value": 67, "unit": "%"}, {"measurement": "inhibition at 10 µM", "setting": "adrenergic alpha 2C (h); […] alpha 2C (h) (antagonist radioligand), read-out: % Inhibition of Control Specific Binding", "value": 92, "unit": "%"}, {"measurement": "inhibition at 10 µM", "setting": "adrenergic alpha 2C (h); [19]", "value": 92, "unit": "%"}]}
{"smiles": "Nc1ncnc2c1ncn2[C@@H]1O[C@H](CSCC[C@H](N)C(=O)O)[C@@H](O)[C@H]1O", "note": "[SAH]", "values": [{"measurement": "IC50", "setting": "SETDB1 (h)", "value": 1800, "unit": "nM"}, {"measurement": "IC50", "setting": "ASH1L", "value": 9.1, "unit": "µM"}]}
